Test results published in ChEMBL document CHEMBL1138169, “Oxadiazole derivatives as a novel class of antimitotic agents: Synthesis, inhibition of tubulin polymerization, and activity in tumor cell lines” (Bioorg Med Chem Lett, 2006).

Tests used:
[1] = AUC (0-4 h) in mouse at 60 mg/kg, ip; format: ADME, organism-based; design: time < 4 hr, dose 60 mg/kg, route intraperitoneal; conditions: plasma
[2] = Half life in mouse at 60 mg/kg, ip; format: ADME, organism-based; design: dose 60 mg/kg, route intraperitoneal; conditions: in vivo
[3] = Cmax in mouse at 60 mg/kg, ip; format: ADME, organism-based; design: dose 60 mg/kg, route intraperitoneal; conditions: in vivo
[4] = test system: A-431; assay: Cell cycle arrest in A431 cells by accumulation at G2/M phase; format: functional, cell-based; conditions: Homo sapiens
[5] = target: Tubulin; assay: Displacement of [3H]colchicine from tubulin at 65 nM; format: protein-complex assay, Homo sapiens
[6] = test system: NCI/ADR-RES; assay: Cell cycle arrest in NCI/ADR (MDR) cells by accumulation at G2/M phase; format: functional, cell-based; conditions: Homo sapiens
[7] = target: Tubulin; assay: Inhibition of tubulin polymerization; format: functional, Homo sapiens
[8] = Cmax in mouse at 60 mg/kg, po; format: ADME, organism-based; design: dose 60 mg/kg, route oral; conditions: in vivo
[9] = Half life in mouse at 60 mg/kg, po; format: ADME, organism-based; design: dose 60 mg/kg, route oral; conditions: in vivo
[10] = AUC (0-4 h) in mouse at 60 mg/kg, po; format: ADME, organism-based; design: time < 4 hr, dose 60 mg/kg, route oral; conditions: plasma

| EC50 [4] [nM] | IC50 [7] [nM] | SMILES | further results |
| --- | --- | --- | --- |
|  |  | COc1cc(Nc2ncccc2-c2n[nH]c(Nc3ccc4c(c3)OCO4)n2)cc(OC)c1 | AUC(0-t) at 4 h [1]: 13.6 µM·h; half-life [2]: 0.62 h; Cmax [3]: 7.3 µM |
| 13 | 700 | c1cncc(CNc2ncccc2-c2nnc(Nc3ccc4c(c3)OCCO4)o2)c1 | AUC(0-t) at 4 h [1]: 6.7 µM·h; IC50 [5]: 30 nM; EC50 [6]: 19 nM; half-life [2]: 0.8 h; Cmax [3]: 6.5 µM |
|  | > 30000 | c1ccc(CNc2ncncc2-c2nnc(Nc3ccc4c(c3)OCCO4)o2)nc1 |  |
| 18 | 500 | c1cnc(NCc2ccc3c(c2)OCO3)c(-c2nnc(Nc3ccc4c(c3)OCCO4)o2)c1 |  |
| 71 | 3800 | CS(=O)(=O)Nc1ccc(CNc2ncccc2-c2nnc(Nc3ccc4c(c3)OCO4)o2)cc1 |  |
| 15 | 700 | Fc1ccc(CNc2ncccc2-c2nnc(Nc3ccc4c(c3)OCCO4)o2)cc1F |  |
| 51 | 2200 | Fc1ccc(CNc2ncccc2-c2nnc(Nc3ccc4c(c3)OCO4)o2)cc1F |  |
| 14 | 1200 | c1ccc(CNc2ccccc2-c2nnc(Nc3ccc4c(c3)OCCO4)o2)nc1 | AUC(0-t) at 4 h [1]: 17.2 µM·h; IC50 [5]: 390 nM; EC50 [6]: 37 nM; half-life [2]: 1.5 h; Cmax [3]: 6.4 µM |
| 99 | 2400 | Cc1ccc(-c2nnc(Nc3ccc4c(c3)OCCO4)o2)c(NCc2ccccn2)n1 |  |
| 23 | 2000 | CS(=O)(=O)Nc1ccc(CNc2ncccc2-c2nnc(Nc3ccc4c(c3)OCCO4)o2)cc1 |  |
|  | > 30000 | CN(c1ccc2c(c1)OCCO2)c1nnc(-c2cccnc2NCc2ccccn2)o1 |  |
| 35 | 1400 | c1ccc(CNc2ccccc2-c2cnc(Nc3ccc4c(c3)OCCO4)o2)nc1 | AUC(0-t) at 4 h [1]: 14.4 µM·h; IC50 [5]: 10 nM; EC50 [6]: 103 nM; half-life [2]: 2.43 h; Cmax [3]: 4.6 µM |
| 20 | 1000 | c1cnc(NCc2ccncc2)c(-c2nnc(Nc3ccc4c(c3)OCO4)o2)c1 | AUC(0-t) at 4 h [1]: 52.6 µM·h; IC50 [5]: 30 nM; EC50 [6]: 7.8 nM; half-life [2]: 2.6 h; Cmax [3]: 15.1 µM |
| 18 | 29900 | c1cnc(NCc2ccncc2)c(-c2nnc(Nc3ccc4c(c3)OCCO4)o2)c1 |  |
| 60 | 5000 | Fc1ccc(CNc2ncccc2-c2nnc(Nc3ccc4c(c3)OCCO4)o2)cc1 |  |
|  | > 30000 | c1ccc(CNc2ccccc2-c2csc(Nc3ccc4c(c3)OCCO4)n2)nc1 |  |
|  | > 30000 | c1ccc(CNc2ccncc2-c2nnc(Nc3ccc4c(c3)OCCO4)o2)nc1 |  |
| 45 | 2000 | c1coc(CNc2ncccc2-c2nnc(Nc3ccc4c(c3)OCCO4)o2)c1 |  |
| 57 | 1800 | c1cnc(NCc2ccc3c(c2)OCCO3)c(-c2nnc(Nc3ccc4c(c3)OCCO4)o2)c1 |  |

| EC50 [4] [nM] | IC50 [7] [nM] | SMILES | further results |
| --- | --- | --- | --- |
| 16 | 1900 | c1ccc(CNc2ncccc2-c2nnc(Nc3ccc4c(c3)OCCO4)o2)nc1 | AUC(0-t) at 4 h [1]: 31.2 µM·h; IC50 [5]: 190 nM; Cmax [8]: 3.8 µM; EC50 [6]: 27 nM; half-life [2]: 2.7 h; half-life [9]: 2.2 h; Cmax [3]: 12.5 µM; AUC(0-t) at 4 h [10]: 8.8 µM·h |
| 75 | 2000 | c1ccc(CNc2nccnc2-c2nnc(Nc3ccc4c(c3)OCCO4)o2)nc1 |  |
| 22 | 4400 | c1ccc(CNc2ccsc2-c2nnc(Nc3ccc4c(c3)OCCO4)o2)nc1 | AUC(0-t) at 4 h [1]: 102 µM·h; IC50 [5]: 75 nM; EC50 [6]: 46 nM; half-life [2]: 0.75 h; Cmax [3]: 59.2 µM |
| 49 | 1700 | c1ccc(CNc2ncccc2-c2nnc(Nc3ccc4c(c3)OCO4)o2)nc1 | AUC(0-t) at 4 h [1]: 21.5 µM·h; IC50 [5]: 30 nM; EC50 [6]: 256 nM; half-life [2]: 4.1 h; Cmax [3]: 4.9 µM |
|  | > 30000 | c1ccc(CNc2ccccc2-c2c[nH]c(Nc3ccc4c(c3)OCCO4)n2)nc1 |  |
| 23 | 1600 | COc1ccc(CNc2ncccc2-c2nnc(Nc3ccc4c(c3)OCCO4)o2)cc1 |  |
| 31 | 2200 | c1cnc(NCc2cnccn2)c(-c2nnc(Nc3ccc4c(c3)OCCO4)o2)c1 |  |
| 82 | 3400 | Fc1cnc(NCc2ccccn2)c(-c2nnc(Nc3ccc4c(c3)OCCO4)o2)c1 |  |
| 210 | 9600 | c1cnc(NCc2cnccn2)c(-c2nnc(Nc3ccc4c(c3)OCO4)o2)c1 |  |
| 31 | 8800 | c1cncc(CNc2ncccc2-c2nnc(Nc3ccc4c(c3)OCO4)o2)c1 |  |
| 130 | 4900 | c1coc(CNc2ncccc2-c2nnc(Nc3ccc4c(c3)OCO4)o2)c1 |  |
| 780 | 13300 | FC1(F)Oc2ccc(Nc3nnc(-c4cccnc4NCc4ccccn4)o3)cc2O1 |  |
|  | > 30000 | FC(F)(F)c1ccc(-c2nnc(Nc3ccc4c(c3)OCCO4)o2)c(NCc2ccccn2)n1 |  |
| 160 | 1700 | c1cnc(NCC2CCCO2)c(-c2nnc(Nc3ccc4c(c3)OCCO4)o2)c1 (centres undefined) | AUC(0-t) at 4 h [1]: 26.3 µM·h; IC50 [5]: 390 nM; EC50 [6]: 128 nM; half-life [2]: 0.78 h; Cmax [3]: 16.4 µM |
| 260 | 18100 | c1ccc(COc2ncccc2-c2nnc(Nc3ccc4c(c3)OCCO4)o2)nc1 |  |
| 20 | 1500 | COc1ccc(Nc2nnc(-c3cccnc3NCc3ccccn3)o2)cc1 |  |
| 330 | 15500 | c1cnc(NCC2CCCO2)c(-c2nnc(Nc3ccc4c(c3)OCO4)o2)c1 (centres undefined) |  |
| 3.5 |  | COc1ccc(/C=C\c2cc(OC)c(OC)c(OC)c2)cc1O [COMBRETASTATIN A4] | EC50 [6]: 1.5 nM |
| 9 |  | CC(=O)O[C@H]1C(=O)[C@@]2(C)[C@H]([C@H](OC(=O)c3ccccc3)[C@]3(O)C[C@H](OC(=O)[C@H](O)[C@@H](NC(=O)c4ccccc4)c4ccccc4)C(C)=C1C3(C)C)[C@]1(OC(C)=O)CO[C@@H]1C[C@@H]2O [PACLITAXEL] | EC50 [6]: > 10000 nM |
